Experimental data from the supplement of paper PMC8671470.

Key:
Details in all cases: 72 h
[1] = system: HL-60; test: area under dose-response curve (viability, 1 nM-10 uM) (fraction (0-1)); higher = more sensitive
Outline: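 Area under the curve, where listed, was derived from four-parameter log-logistic fits with drc and PharmacoGx. These fits used CellTiter-Glo viability from HL-60 cells in RPMI 1640 with 10% FBS, normalised to DMSO wells and wells holding 10 μM proteasome inhibitor. The full library was rescreened on 384-well plates in duplicate at five tenfold concentrations, 1–10,000 nM, with DMSO or 100 nM of one of three metabolic inhibitors, for 72 h at 37 °C, 5% CO2.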

[2] = system: myeloid leukemia patient primary cells Pat.6; test: cell viability (% survival relative to DMSO control); higher = less cytotoxic
Outline: (§1)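 Mononuclear cells from patients with AML or CML were thawed, purified on Ficoll and placed in RPMI 1640 with 10% FBS at 10,000 cells/well on 384-well plates. The plates came pre-printed with 70 compounds at five tenfold concentrations spanning 1–10,000 nM, in duplicate, and cells were exposed for 72 h. CellTiter-Glo gave viability, scaled between DMSO wells and wells with 10 μM proteasome inhibitor. Where reported, area under the curve was obtained from log-logistic fits with four parameters using the drc and PharmacoGx R packages.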

[3] = system: myeloid leukemia patient primary cells Pat.9; test: as above
Outline: as §1

[4] = system: myeloid leukemia patient primary cells Pat.4; test: as above
Outline: as §1

[5] = co-treatment: GSK2194069 100 nM
[6] = co-treatment: pictilisib 100 nM

Row | SMILES | area under dose-response curve ([1]; co-treatment: AZD3965 100 nM) | area under dose-response curve ([1]; co-treatment: DMSO vehicle) | area under dose-response curve [1, 5] | area under dose-response curve [1, 6] | cell viability ([2]; 1 nM) [%] | cell viability ([2]; 10 nM) [%] | cell viability ([2]; 100 nM) [%] | cell viability ([2]; 1000 nM) [%] | cell viability ([2]; 10000 nM) [%] | cell viability ([3]; 1 nM) [%] | cell viability ([3]; 10 nM) [%] | cell viability ([3]; 100 nM) [%] | cell viability ([3]; 1000 nM) [%] | cell viability ([3]; 10000 nM) [%] | cell viability ([4]; 1 nM) [%] | cell viability ([4]; 10 nM) [%] | cell viability ([4]; 100 nM) [%] | cell viability ([4]; 1000 nM) [%] | cell viability ([4]; 10000 nM) [%]
1 | Cl.OC[C@H]1NC[C@@H](O)[C@@H](O)[C@@H]1O [1-Deoxymannojirimycin hydrochloride] | < 0.0301 | < 0.0301 | < 0.0301 | < 0.0301 | – | – | – | – | – | – | – | – | – | – | – | – | – | – | –
2 | CCOC(=O)[C@@]1(CCCCCCOc2ccc(Cl)cc2)CO1 [Etomoxir] | < 0.0301 | < 0.0301 | < 0.0301 | < 0.0301 | – | – | – | – | – | – | – | – | – | – | – | – | – | – | –
3 | O=C(O)c1cc2sccc2[nH]1 [4H-thieno[3,2-b]pyrrole-5-carboxylic acid] | < 0.0301 | < 0.0301 | < 0.0301 | < 0.0301 | – | – | – | – | – | – | – | – | – | – | – | – | – | – | –
4 | CCCc1nn(C)c2c(O)nc(-c3cc(S(=O)(=O)N4CCN(C)CC4)ccc3OCC)nc12 [Sildenafil] | < 0.0301 | < 0.0301 | < 0.0301 | < 0.0301 | – | – | – | – | – | – | – | – | – | – | – | – | – | – | –
5 | CN(C)c1nc(O)c2[nH]cnc2n1 [2-Dimethylamino-6-hydroxypurine] | < 0.0301 | < 0.0301 | < 0.0301 | < 0.0301 | – | – | – | – | – | – | – | – | – | – | – | – | – | – | –
6 | O=C1Oc2ccccc2C(=O)C1CC1C(=O)Oc2ccccc2C1=O (stereo unspecified) [Dicumarol] | < 0.0301 | < 0.0301 | < 0.0301 | < 0.0301 | – | – | – | – | – | – | – | – | – | – | – | – | – | – | –
7 | O=C(c1ccc(OCCN2CCCCC2)cc1)c1c(-c2ccc(O)cc2)sc2cc(O)ccc12 [Raloxifene] | < 0.0301 | < 0.0301 | < 0.0301 | < 0.0301 | – | – | – | – | – | – | – | – | – | – | – | – | – | – | –
8 | Cc1coc2c1C(=O)C(=O)c1c-2ccc2c(C)cccc12 [Tanshinone I] | < 0.0301 | < 0.0301 | < 0.0301 | < 0.0301 | – | – | – | – | – | – | – | – | – | – | – | – | – | – | –
9 | c1ccc2c(c1)OCC(=C1NCCN1)O2 [Idazoxan] | < 0.0301 | < 0.0301 | < 0.0301 | < 0.0301 | – | – | – | – | – | – | – | – | – | – | – | – | – | – | –
10 | CC(/C=C1\SC(=S)N(CC(=O)O)C1=O)=C\c1ccccc1 [Epalrestat] | < 0.0301 | < 0.0301 | < 0.0301 | < 0.0301 | – | – | – | – | – | – | – | – | – | – | – | – | – | – | –
11 | C1CCc2nnc(C34CC5CC(CC(C5)C3)C4)n2CC1 [MERCK-544] | < 0.0301 | < 0.0301 | < 0.0301 | < 0.0301 | – | – | – | – | – | – | – | – | – | – | – | – | – | – | –
12 | N[C@](CCCCB(O)O)(CCN1CCCCC1)C(=O)O [Arginase inhibitor 1] | 0.0306 | 0.0367 | 0.0592 | – | – | – | – | – | – | – | – | – | – | – | – | – | – | – | –
13 | Clc1ccc2c(c1Cl)CNCC2 | < 0.0301 | < 0.0301 | < 0.0301 | < 0.0301 | – | – | – | – | – | – | – | – | – | – | – | – | – | – | –
14 | CCOC(=O)N1c2ccc(C(F)(F)F)cc2[C@@H](N(Cc2cc(C(F)(F)F)cc(C(F)(F)F)c2)C(=O)OC)C[C@H]1CC [Torcetrapib] | < 0.0301 | < 0.0301 | < 0.0301 | < 0.0301 | 89.2 | 80.7 | > 100 | > 100 | 50.4 | 45.1 | 28.6 | 68.9 | 48.8 | 5.45 | 86.9 | 86 | 74.1 | 97 | 56.7
15 | O=C(O)CCc1ccc(NCc2cccc(Oc3ccccc3)c2)cc1 [GW9508] | < 0.0301 | < 0.0301 | < 0.0301 | < 0.0301 | – | – | – | – | – | – | – | – | – | – | – | – | – | – | –
16 | CC(Cc1ccc(O)c(O)c1)C(C)Cc1ccc(O)c(O)c1 (stereo unspecified) [Masoprocol] | 0.12 | 0.104 | 0.0826 | 0.142 | 97.8 | 94.2 | > 100 | 72.2 | 33.9 | 75.1 | 87.1 | 97.4 | 9.61 | 83.4 | 77.7 | 91.8 | > 100 | 81.8 | 19.3
17 | Nc1ccn([C@@H]2O[C@H](CO)[C@@H](O)[C@@H]2O)c(=O)n1 [Cytarabine] | 0.242 | 0.214 | 0.216 | 0.329 | > 100 | 78.9 | 89.5 | 86.6 | 36.2 | 89.7 | 18.1 | 51.2 | 15.5 | 2.09 | 87.3 | 88.5 | 75.5 | 75.1 | 5.31
18 | O=C(COc1ccc(C(=O)c2ccccc2)cc1)NC1CCN(Cc2ccccc2)CC1 [AdipoRon] | < 0.0301 | < 0.0301 | < 0.0301 | < 0.0301 | – | – | – | – | – | – | – | – | – | – | – | – | – | – | –
19 | C[C@]12CC[C@H](O)CC1=CC[C@@H]1[C@@H]2CC[C@]2(C)C(c3cccnc3)=CC[C@@H]12 [Abiraterone] | < 0.0301 | < 0.0301 | < 0.0301 | < 0.0301 | – | – | – | – | – | – | – | – | – | – | – | – | – | – | –
20 | Cc1c(-c2ccccc2)oc2c(C(=O)OCCN3CCCCC3)cccc2c1=O.Cl [Flavoxate] | < 0.0301 | < 0.0301 | < 0.0301 | < 0.0301 | – | – | – | – | – | – | – | – | – | – | – | – | – | – | –
21 | Clc1ccc(COC(Cn2ccnc2)c2ccc(Cl)cc2Cl)cc1 (stereo unspecified) [Econazole] | – | – | – | – | 91.4 | 96 | 92.2 | 84.9 | 44.9 | 55.9 | 80.5 | 43.2 | 25.8 | 3.7 | 88 | 94.6 | 81.7 | 88.5 | 74.9
22 | Sc1ncnc2nc[nH]c12 [6-mercaptopurine] | 0.0762 | 0.0564 | 0.0946 | 0.0609 | 89.3 | > 100 | 99.8 | 88.3 | 97.9 | 62.5 | 68.1 | 48.8 | 79.9 | 30.1 | 79.1 | 80 | 85.9 | 88.2 | 92.3
23 | CCOC(=O)[C@H]1O[C@@H]1C(=O)N[C@@H](CC(C)C)C(=O)NCCC(C)C [Aloxistatin] | < 0.0301 | < 0.0301 | < 0.0301 | < 0.0301 | – | – | – | – | – | – | – | – | – | – | – | – | – | – | –
24 | OCCN1CCN(CCCN2c3ccccc3Sc3ccc(Cl)cc32)CC1 [Perphenazine] | 0.0332 | < 0.0301 | 0.0329 | < 0.0301 | – | – | – | – | – | – | – | – | – | – | – | – | – | – | –
